# ChEMBL document CHEMBL5608208, “Design, synthesis of griseofamine A derivatives and development of potent antibacterial agents against MRSA” (Eur J Med Chem, 2024)
# The source made the active and inactive calls. No cut-off for these calls is given here.
# Tests used:
# [1] = Cmax in ICR mouse at 5 mg/kg, po; assay type: ADME, organism-based; settings: in vivo
# [2] = Bioavailability in ICR mouse at 5 mg/kg, po; assay type: ADME, organism-based; settings: in vivo
# Staphylococcus aureus [3] = assay: Inhibition of biofilm formation in methicillin resistant Staphylococcus aureus ATCC 33592 assessed as decrease in biofilm survival rate incubated for 48 hrs by crystal violet staining based optical microscopic analysis; assay type: functional, organism-based
# Staphylococcus aureus [4] = assay: Antibacterial activity against methicillin resistant Staphylococcus aureus ATCC 43300 infected in ICR mouse systemic infection model assessed as reduction in bacterial burden in kidney at 2.5 mg/kg, ip pretreated with bacteria for 30 mins followed by compound addition and measured for 7 days; assay type: functional, organism-based; settings: time 7.0 day
# [5] = Acute toxicity in ICR mouse assessed as change in water intake at 2 g/kg, po measured after 7 days; assay type: organism-based; settings: in vivo, 2000 mg/kg, 168 h, time 7 day
# [6] = Acute toxicity in ICR mouse assessed as aberrant behavior at 2 g/kg, po measured after 7 days; assay type: organism-based; settings: in vivo, 2000 mg/kg, 168 h, time 7 day
# Staphylococcus aureus [7] = assay: Drug resistance development in methicillin resistant Staphylococcus aureus ATCC 43300 assessed as increase in MIC value measured after 8 passages by broth microdilution method; assay type: functional
# [8] = MRT(0 to t) in ICR mouse at 5 mg/kg, po; assay type: ADME, organism-based; settings: in vivo
# Staphylococcus aureus [9] = assay: Antibacterial activity against methicillin resistant Staphylococcus aureus ATCC 43300 incubated for 18 hrs by serial two-fold dilution method; assay type: functional
# Staphylococcus aureus [10] = assay: Antibacterial activity against methicillin resistant Staphylococcus aureus ATCC 33592 assessed as leakage of cellular components at MIC incubated for 1 to 6 hrs by SEM analysis; assay type: functional, organism-based; settings: time 1-6 hrs
# [11] = Clearance in ICR mouse at 5 mg/kg, po; assay type: ADME, organism-based; settings: in vivo
# Staphylococcus aureus [12] = assay: Bactericidal activity against Staphylococcus aureus ATCC 29213 incubated for 18 to 24 hrs; assay type: functional; settings: time 18-24 hrs
# [13] = Tmax in ICR mouse at 5 mg/kg, po; assay type: ADME, organism-based; settings: in vivo
# [14] = MRT(0 to infinity) in ICR mouse at 1 mg/kg, iv; assay type: ADME, organism-based; settings: in vivo
# Staphylococcus aureus [15] = assay: Drug resistance development in Staphylococcus aureus ATCC 29213 assessed as increase in MIC value measured after 7 passages by broth microdilution method; assay type: functional, organism-based
# Staphylococcus aureus [16] = assay: Potency index, ratio of vancomycin MIC to test compound MIC for antibacterial activity against methicillin resistant Staphylococcus aureus ATCC 43300; assay type: functional
# [17] = AUC(0 to infinity) in ICR mouse at 5 mg/kg, po; assay type: ADME, organism-based; settings: in vivo
# [18] = Volume of distribution in ICR mouse at 5 mg/kg, po; assay type: ADME, organism-based; settings: in vivo
# Staphylococcus aureus [19] = assay: Antibacterial activity against methicillin resistant Staphylococcus aureus ATCC 33592 assessed as increase in cell aggregation at MIC incubated for 1 to 6 hrs by SEM analysis; assay type: functional, organism-based; settings: time 1-6 hrs
# [20] = test system: Staphylococcus epidermidis; assay: Drug resistance development in Staphylococcus epidermidis ATCC 12228 assessed as increase in MIC value measured after 8 passages by broth microdilution method; assay type: functional
# Staphylococcus aureus [21] = assay: Potency index, ratio of vancomycin MIC to test compound MIC for antibacterial activity against methicillin resistant Staphylococcus aureus ATCC 33592; assay type: functional
# [22] = Half-life in ICR mouse at 5 mg/kg, po; assay type: ADME, organism-based; settings: in vivo
# [23] = test system: Staphylococcus epidermidis; assay: Bactericidal activity against Staphylococcus epidermidis ATCC 12228 incubated for 18 to 24 hrs; assay type: functional; settings: time 18-24 hrs
# Staphylococcus aureus [24] = assay: Antibacterial activity against methicillin resistant Staphylococcus aureus ATCC 43300 infected in ICR mouse systemic infection model assessed as reduction in bacterial burden in spleen at 2.5 mg/kg, ip pretreated with bacteria for 30 mins followed by compound addition and measured for 7 days; assay type: functional, organism-based; settings: time 7.0 day
# [25] = test system: Staphylococcus epidermidis; assay: Drug resistance development in Staphylococcus epidermidis ATCC 12228 assessed as increase in MIC value measured after 7 passages by broth microdilution method; assay type: functional, organism-based
# Staphylococcus aureus [26] = assay: Antibacterial activity against methicillin resistant Staphylococcus aureus ATCC 33592 incubated for 18 hrs by serial two-fold dilution method; assay type: functional
# Staphylococcus aureus [27] = assay: Potency index, ratio of griseofamine A MIC to test compound MIC for antibacterial activity against methicillin resistant Staphylococcus aureus ATCC 33592; assay type: functional
# Staphylococcus aureus [28] = assay: Antibacterial activity against methicillin resistant Staphylococcus aureus ATCC 43300 infected in ICR mouse systemic infection model assessed as reduction in bacterial burden in lung at 2.5 mg/kg, ip pretreated with bacteria for 30 mins followed by compound addition and measured for 7 days; assay type: functional, organism-based; settings: time 7.0 day
# Staphylococcus aureus [29] = assay: Antibacterial activity against methicillin resistant Staphylococcus aureus ATCC 43300 infected in ICR mouse systemic infection model assessed as reduction in bacterial burden in liver at 2.5 mg/kg, ip pretreated with bacteria for 30 mins followed by compound addition and measured for 7 days; assay type: functional, organism-based; settings: time 7.0 day
# Staphylococcus aureus [30] = assay: Bactericidal activity against methicillin resistant Staphylococcus aureus ATCC 43300 incubated for 18 to 24 hrs; assay type: functional; settings: time 18-24 hrs
# Staphylococcus aureus [31] = assay: Antibacterial activity against methicillin resistant Staphylococcus aureus ATCC 43300 infected in ICR mouse systemic infection model at 5 mg/kg, ip pretreated with bacteria for 30 mins followed by compound addition and measured for 7 days; assay type: functional; settings: time 7 day
# Staphylococcus aureus [32] = assay: Drug resistance development in methicillin resistant Staphylococcus aureus […] assessed as increase in MIC value measured after 7 passages by broth microdilution method; assay type: functional, organism-based
# [33] = Hemolytic activity in rabbit RBC assessed as hemolysis rate at 23.5 ug/ml incubated for 1 hr by microplate reader assay; assay type: toxicity, cell-based, Oryctolagus cuniculus, Erythrocyte; settings: rabbit red blood cells (erythrocytes), at 23.5 µg/mL, read-out: Activity
# Cell membrane = assay: Induction of bacterial cell membrane damage in methicillin resistant Staphylococcus aureus ATCC 33592 assessed as increase in fluorescence intensity at MIC incubated for 2 hrs by PI staining based microplate reader assay; assay type: cell membranes
# Staphylococcus aureus [34] = assay: Drug resistance development in methicillin resistant Staphylococcus aureus ATCC 43300 assessed as increase in MIC value measured after 7 passages by broth microdilution method; assay type: functional, organism-based
# [35] = Acute toxicity in ICR mouse at 2 g/kg, po measured after 7 days; assay type: organism-based; settings: in vivo, 2000 mg/kg, time 7 day
# [36] = test system: Staphylococcus epidermidis; assay: Antibacterial activity against Staphylococcus epidermidis ATCC 12228 incubated for 18 hrs by serial two-fold dilution method; assay type: functional
# Staphylococcus aureus [37] = assay: Antibacterial activity against methicillin resistant Staphylococcus aureus ATCC 33592 assessed as surface collapse at MIC incubated for 1 to 6 hrs by SEM analysis; assay type: functional, organism-based; settings: time 1-6 hrs
# Staphylococcus aureus [38] = assay: Antibacterial activity against methicillin resistant Staphylococcus aureus ATCC 43300 infected in ICR mouse systemic infection model at 1.25 to 5 mg/kg, ip pretreated with bacteria for 30 mins followed by compound addition and measured for 7 days; assay type: functional; settings: dose 1.25-5 mg/kg, time 7 day
# Staphylococcus aureus [39] = assay: Bactericidal activity against methicillin resistant Staphylococcus aureus ATCC 33592 at 2.5 times MIC measured after 2 to 24 hrs by time-kill kinetics assay; assay type: functional; settings: time 2-24 hrs
# [40] = AUC(0 to t) in ICR mouse at 5 mg/kg, po; assay type: ADME, organism-based; settings: in vivo
# [41] = MRT(0 to t) in ICR mouse at 1 mg/kg, iv; assay type: ADME, organism-based; settings: in vivo
# [42] = Cytotoxicity against mouse MLg cells assessed as survival rate at 23.5 ug/ml incubated for 24 hrs by MTS method; assay type: toxicity, cell-based; settings: at 23.5 µg/mL, read-out: Survival
compound,measurement,setting,value
C/C(O)=C1\C(=O)[C@@H]2Cc3c([nH]c4ccccc34)[C@@H](c3ccc(-c4cc(F)cc(F)c4)cc3)N2C1=O,Cmax,[1],233 ng/mL
same,bioavailability,[2],11.6%
same,inhibition,Staphylococcus aureus [3],Dose-Dependent Effect
same,Activity,Staphylococcus aureus [4],Active
same,Activity,[5],Non-Toxic
same,Activity,[6],Non-Toxic
same,MIC,Staphylococcus aureus [7],2 µg/mL
same,MRT last,[8],10.6 h
same,MIC,Staphylococcus aureus [9],0.063 µg/mL
same,Activity,Staphylococcus aureus [10],Active
same,CL/F,[11],32.5 mL/min/kg
same,MBC,Staphylococcus aureus [12],1 µg/mL
same,Tmax,[13],3.33 h
same,MRT inf,[14],11.1 h
same,Activity,Staphylococcus aureus [15],inactive
same,Ratio,Staphylococcus aureus [16],8
same,AUC(0-inf),[17],2570 ng·h/mL
same,Vd,[18],21.714 L/kg
same,Activity,Staphylococcus aureus [19],Active
same,MIC,[20],2 µg/mL
same,Ratio,Staphylococcus aureus [21],8
same,half-life,[22],7.91 h
same,MBC,[23],0.25 µg/mL
same,Activity,Staphylococcus aureus [24],Active
same,Activity,[25],inactive
same,MIC,Staphylococcus aureus [26],0.063 µg/mL
same,Ratio,Staphylococcus aureus [27],128
same,Activity,Staphylococcus aureus [28],Active
same,Activity,Staphylococcus aureus [29],Active
same,MBC,Staphylococcus aureus [30],1 µg/mL
same,Activity,Staphylococcus aureus [31],87.5%
same,Activity,Staphylococcus aureus [32],inactive
same,"hemolysis at 1 h, 23.5 ug/ml",[33],< 5%
same,Activity,Cell membrane,Active
same,Activity,Staphylococcus aureus [34],inactive
same,LD50 at 168 h,[35],> 2000 mg/kg
same,MIC,[36],0.125 µg/mL
same,Activity,Staphylococcus aureus [37],Active
same,Activity,Staphylococcus aureus [38],>50%
same,Activity,Staphylococcus aureus [39],100%
same,AUC(0-t),[40],2450 ng·h/mL
same,MRT last,[41],10.4 h
same,"viability at 24 h, 23.5 ug/ml",[42],> 80%
